Measured values taken from patent US20170209492A1, “SUBSET-OPTIMIZED CHIMERIC ANTIGEN RECEPTOR-CONTAINING T-CELLS” (NOVARTIS AG, priority 2014, published 2017).

Tests used:
NALM6-luc tumors = experiment: NALM6-luc tumor growth with daily RAD001 dosing; type: in vivo, NSG mice; conditions: daily oral dosing of RAD001 alone, 0.3, 1, 3 and 10 mg/kg
Method: NALM6-luc cells: The NALM6 human acute lymphoblastic leukemia (ALL) cell line was developed from the peripheral blood of a patient with relapsed ALL. The cells were then tagged with firefly luciferase. These suspension cells grow in RPMI supplemented with 10% heat inactivated fetal bovine serum.
Mice: 6 week old NSG (NOD.Cg-PrkdcscidIl2rgtmlWj1/SzJ) mice were received from the Jackson Laboratory (stock number 005557).
(§1) Tumor implantation: NALM6-luc cells were grown and expanded in vitro in RPMI supplemented with 10% heat inactivated fetal bovine serum. The cells were then transferred to a 15 ml conical tube and washed twice with cold sterile PBS. NALM6-luc cells were then counted and resuspended at a concentration of 10×10^6 cells per milliliter of PBS. The cells were placed on ice and immediately (within one hour) implanted in the mice. NALM6-luc cells were injected intravenously via the tail vein in a 100 μl volume, for a total of 1×10^6 cells per mouse.
(§2) RAD001 dosing: A concentrated micro-emulsion of 50 mg equal to 1 mg RAD001 was formulated and then resuspended in D5W (dextrose 5% in water) at the time of dosing. Mice were orally dosed daily (via oral gavage) with 200 μl of the desired doses of RAD001.

huCAR19 CAR T cells = experiment: in vivo proliferation of humanized CD19 CART cells with RAD001 dosing; parameters: species or system NSG mice
Method: as §1
CAR T cell dosing: Mice were administered 5×10^6 CAR T cells 7 days after tumor implantation. Cells were partially thawed in a 37 degree Celsius water bath and then completely thawed by the addition of 1 ml of cold sterile PBS to the tube containing the cells. The thawed cells were transferred to a 15 ml falcon tube and adjusted to a final volume of 10 mls with PBS. The cells were washed twice at 1000 rpm for 10 minutes each time and then counted on a hemocytometer. T cells were then resuspended at a concentration of 50×10^6 CAR T cells per ml of cold PBS and kept on ice until the mice were dosed. The mice were injected intravenously via the tail vein with 100 μl of the CAR T cells for a dose of 5×10^6 CAR T cells per mouse. Eight mice per group were treated either with 100 μl of PBS alone (PBS), or humanized CD19 CAR T cells.
as §2
Based on these doses, huCAR19 CAR T cells were dosed with and without RAD001 to determine the proliferative ability of these cells. The highest dose used was 3 mg/kg based on the levels of RAD001 in the blood 24 hours after dosing. As the concentration of RAD001 was above 10 nM 24 hours after the final dose of RAD001, several lower doses of RAD001 were used in the in vivo study with CAR T cells. The CAR T cells were dosed IV one day prior to the start of the daily oral RAD001 dosing. Mice were monitored via FACS for T cell expansion.

[1] = tested on: huCART19 cells co-cultured with NALM6 (Nalm-6); experiment: CART proliferation in 4 day co-culture assay with RAD001; type: cell-based, human; conditions: for proliferation of huCART19 cells: 4 day co-culture
Method: To evaluate the functionality of CARTs, the T cells are thawed and counted, and viability is assessed by Cellometer. The number of CAR-positive cells in each culture is normalized using non-transduced T cells (UTD). The impact of RAD001 on CARTs was tested in titrations with RAD001, starting at 50 nM. The target cell line used in all co-culture experiments is NALM6 (Nalm-6), a human pre-B cell acute lymphoblastic leukemia (ALL) cell line expressing CD19 and transduced to express luciferase.
For measuring the proliferation of CARTs, T cells are cultured with target cells at a ratio of 1:1. The assay is run for 4 days, when cells are stained for CD3, CD4, CD8 and CAR expression. The number of T cells is assessed by flow cytometry using counting beads as reference.

[2] = pharmacokinetic analysis of RAD001 in blood; type: in vivo, NSG mice
Method: as §2
PK analysis: Mice were dosed daily with RAD001 starting 7 days post tumor implantation. Dosing groups were as follows: 0.3 mg/kg, 1 mg/kg, 3 mg/kg, and 10 mg/kg. Mice were bled on days 0 and 14 following the first and last dose of RAD001, at the following time points for PK analysis: 15 minutes, 30 minutes, 1 hour, 2 hours, 4 hours, 8 hours, 12 hours, and 24 hours.

concentration at 24 h ([2]; NSG, mouse, blood, lowest dose tested (0.3 mg/kg), oral, read-out: RAD001 concentration in the blood 24 hours after dosing): > 10 nM
concentration of RAD001 24 hours after the final dose ([2]; after the final dose of RAD001): above 10 nM
stability in the blood of tumor bearing mice ([2]; daily oral dosing): fairly stable
RAD001 concentration in the blood 24 hours after dosing ([2]; day 14, lowest dose tested (0.3 mg/kg), oral): above 10 nm
Compound: CO[C@H]1C[C@@H]2CC[C@@H](C)[C@@](O)(O2)C(=O)C(=O)N2CCCC[C@H]2C(=O)O[C@H]([C@H](C)C[C@@H]2CC[C@@H](OCCO)[C@H](OC)C2)CC(=O)[C@H](C)/C=C(\C)[C@@H](O)[C@@H](OC)C(=O)[C@H](C)C[C@H](C)/C=C/C=C/C=C/1C [RAD001, (1R,9S,12S,15R,16E,18R,19R,21R,23S,24E,26E,28E,30S,32S,35R)-1,18-dihydroxy-12-{(1R)-2-[(1S ,3R,4R)-4-(2-hydroxyethoxy)-3-methoxycyclohexyl]-1-methylethyl}-19,30-dimethoxy-15,17,21,23,29,35-hexamethyl-11,36-dioxa-4-aza-tricyclo[30.3.1.04,9]hexatriaconta-16,24,26,28-tetraene-2,3,10,14,20-pentaone]
growth of NALM6-luc tumors (NALM6-luc tumors): did not have an impact
CAR T cell proliferation in vivo (huCAR19 CAR T cells; RAD001 0.003 mg/kg daily, above the normal level of huCAR19 proliferation): enhancement
proliferation of CD8+ CAR T cells in vivo (huCAR19 CAR T cells; lowest doses of RAD001): enhanced proliferation can be seen at early time points
proliferation of the CAR T cells in vivo (huCAR19 CAR T cells; lowest doses of RAD001, daily oral, huCAR19 dosed IV): enhanced proliferation
proliferation of CD4+ CAR T cells in vivo (huCAR19 CAR T cells; lowest doses of RAD001, compared with CD8+ CAR T cells): more evident and prolonged
proliferation of huCART19 cells ([1]; 0.0032 nM RAD001): higher than observed without the addition of RAD001
proliferation of huCART19 cells ([1]; 0.016 nM RAD001): higher than observed without the addition of RAD001
proliferation of CAR-expressing, transduced T cells ([1]; low doses of RAD001, 4 days of co-culture): enhanced
